Calls of active or inactive are those of the source. The rule behind the calls is not given here.
What was measured:
Hep 3B2 [1] = assay: Induction of apoptosis in human Hep3B cells assessed as viable cells at 10 nM incubated for 48 hrs in presence of gamabufotalin by Annexin V-FITC/PI staining based flow cytometry method (reference value: 94.0%); type: functional; conditions: read-out: Activity
Hep 3B2 [2] = assay: Induction of apoptosis in human Hep3B cells assessed as early apoptotic cells at 10 nM incubated for 48 hrs by Annexin V-FITC/PI staining based flow cytometry method (reference value: 1.3%); type: functional
Huh-7 [3] = assay: Induction of autophagic flux in human Huh-7 cells assessed as rescue of p62 at 10 uM incubated for 48 hrs in presence of gamabufotalin by Western blot analysis; type: functional, cell-based
Hep 3B2 [4] = assay: Induction of apoptosis in human Hep3B cells assessed as increase in cleaved PARP level at 10 nM incubated for 48 hrs in presence of gamabufotalin by immunoblot analysis; type: functional, cell-based
Huh-7 [5] = assay: Induction of apoptosis in human Huh-7 cells assessed as increase in caspase-3 level at 10 nM incubated for 48 hrs in presence of gamabufotalin by immunoblot analysis; type: functional, cell-based
Huh-7 [6] = assay: Induction of autophagic flux in human Huh-7 cells harbouring mCherry-egfp-LC3 assessed as reduction in number of yellow puncta ratio at 10 nM incubated for 15 mins in presence of gamabufotalin by laser scanning confocal microscopic analysis; type: functional, cell-based
Huh-7 [7] = assay: Induction of autophagic flux in human Huh-7 cells assessed as increase in number of autophagic vesicles at 10 nM by transmission electron microscopic analysis; type: functional, cell-based
Hep 3B2 [8] = assay: Induction of autophagy in human Hep3B cells assessed as reduction in autophagic vesicles at 25 nM incubated for 48 hrs in presence of 4,6-dimorpholino-N-(4-nitrophenyl)-1,3,5-triazin-2-amine by transmission electron microscopy based analysis; type: functional, cell-based
Huh-7 [9] = assay: Induction of apoptosis in human Huh-7 cells assessed as necrotic cells at 25 nM incubated for 48 hrs by Annexin V-FITC/PI staining based flow cytometry method (reference value: 1.9%); type: functional
Hep 3B2 [10] = assay: Induction of apoptosis in human Hep3B cells assessed as late apoptotic cells at 25 nM incubated for 48 hrs by Annexin V-FITC/PI staining based flow cytometry method (reference value: 2.2%); type: functional
Huh-7 [11] = assay: Induction of autophagy in human Huh-7 cells harbouring mCherry-egfp-LC3 assessed as reduction in yellow puncta ratio at 25 nM incubated for 15 mins in presence of 4,6-dimorpholino-N-(4-nitrophenyl)-1,3,5-triazin-2-amine by laser scanning confocal microscopic analysis; type: functional, cell-based
Huh-7 [12] = assay: Induction of autophagic flux in human Huh-7 cells assessed as rescue of LC3-II accumulation at 25 uM incubated for 48 hrs in presence of chloroquine by Western blot analysis; type: functional, cell-based
Huh-7 [13] = assay: Induction of apoptosis in human Huh-7 cells assessed as upregulation of cleaved caspase-3 level […] incubated for 48 hrs in presence of 4,6-dimorpholino-N-(4-nitrophenyl)-1,3,5-triazin-2-amine by immunoblot analysis; type: functional, cell-based
Hep 3B2 [14] = assay: Induction of apoptosis in human Hep3B cells assessed as necrotic cells at 25 nM incubated for 48 hrs by Annexin V-FITC/PI staining based flow cytometry method (reference value: 0.7%); type: functional
Hep 3B2 [15] = assay: Induction of apoptosis in human Hep3B cells assessed as necrotic cells at 25 nM incubated for 48 hrs in presence of 4,6-dimorpholino-N-(4-nitrophenyl)-1,3,5-triazin-2-amine by Annexin V-FITC/PI staining based flow cytometry method (reference value: 0.7%); type: functional
Huh-7 [16] = assay: Induction of apoptosis in human Huh-7 cells assessed as condensed nuclei at upto 25 uM incubated for 48 hrs by Hoechst33258 staining based fluorescence microscopy; type: functional, cell-based
Hep 3B2 [17] = assay: Induction of apoptosis in human Hep3B cells assessed as necrotic cells at 25 nM incubated for 48 hrs by Annexin V-FITC/PI staining based flow cytometry method (reference value: 0.2%); type: functional
Hep 3B2 [18] = assay: Antitumor activity against human Hep3B cells xenografted in nude mouse model assessed as downregulation of ULK1 phosphorylation expression expression at 5 mg/kg,ip administered every second day for 3 weeks by Western blot analysis; type: functional, organism-based
Hep 3B2 [19] = assay: Induction of apoptosis in human Hep3B cells assessed as necrotic cells at 20 nM incubated for 48 hrs by Annexin V-FITC/PI staining based flow cytometry method (reference value: 0.2%); type: functional
Hep 3B2 [20] = assay: Induction of autophagy in human Hep3B cells assessed as downregulation of LC3II/LC3I ratio at 25 uM incubated for 48 hrs in presence of 4,6-dimorpholino-N-(4-nitrophenyl)-1,3,5-triazin-2-amine by immunoblot analysis; type: functional, cell-based
Hep 3B2 [21] = assay: Induction of apoptosis in human Hep3B cells assessed as increase in PARP level at 25 nM incubated for 48 hrs in presence of chloroquine by immunoblot analysis; type: functional, cell-based
Huh-7 [22] = assay: Induction of apoptosis in human Huh-7 cells assessed as early apoptotic cells at 25 nM incubated for 48 hrs by Annexin V-FITC/PI staining based flow cytometry method (reference value: 2.8%); type: functional
Huh-7 [23] = assay: Induction of apoptosis in human Huh-7 cells assessed as increase in cleaved caspase-3 expression at upto 25 nM incubated for 48 hrs by Western blot analysis; type: functional, cell-based
Huh-7 [24] = assay: Induction of autophagic flux in human Huh-7 cells assessed as rescue of LC3-I accumulation at 25 uM incubated for 48 hrs in presence of chloroquine by Western blot analysis; type: functional, cell-based
Huh-7 [25] = assay: Induction of autophagy in human Huh-7 cells assessed as rescue of ULK1 phosphorylation level at upto 25 nM incubated for 48 hrs in presence of chloroquine by immunoblot method; type: functional, cell-based
Hep 3B2 [26] = assay: Induction of apoptosis in human Hep3B cells assessed as reduction in Bcl-2 level at 25 nM incubated for 48 hrs in presence of chloroquine by immunoblot analysis; type: functional, cell-based
Hep 3B2 [27] = assay: Antitumor activity against human Hep3B cells xenografted in nude mouse model assessed as upregulation of cleaved caspase-3 expression at 5 mg/kg,ip administered every second day for 3 weeks by Western blot analysis; type: functional, organism-based
Huh-7 [28] = assay: Induction of apoptosis in human Huh-7 cells assessed as necrotic cells at 25 nM measured after 48 hrs by annexin V-FITC/Propidium iodide staining based flow cytometric analysis (reference value: 0.0%); type: functional
Hep 3B2 [29] = assay: Induction of apoptosis in human Hep3B cells assessed as necrotic cells at 25 nM measured after 48 hrs by annexin V-FITC/Propidium iodide staining based flow cytometric analysis (reference value: 0.3%); type: functional
Huh-7 [30] = assay: Induction of apoptosis in human Huh-7 cells assessed as late apoptotic cells at 15 nM incubated for 48 hrs by Annexin V-FITC/PI staining based flow cytometry method (reference value: 2.2%); type: functional
Hep 3B2 [31] = assay: Induction of apoptosis in human Hep3B cells assessed as increase in PARP expression at upto 25 nM incubated for 48 hrs by Western blot analysis; type: functional, cell-based
Huh-7 [32] = assay: Inhibition of colony formation in human Huh-7 cells at upto 25 uM incubated for 48 hrs by crystal violet staining based analysis; type: functional, cell-based
Huh-7 [33] = assay: Induction of apoptosis in human Huh-7 cells assessed as reduction in bcl-2 level […] incubated for 48 hrs in presence of 4,6-dimorpholino-N-(4-nitrophenyl)-1,3,5-triazin-2-amine by immunoblot analysis; type: functional, cell-based

CCN(CC)CCCC(C)Nc1ccnc2cc(Cl)ccc12 (stereo not drawn) [CHLOROQUINE]
viability at 0.01 µM (Hep 3B2 [1]): 63.9% | Activity (Hep 3B2 [2]): 1.5% | Activity (Huh-7 [3]): Active | Activity (Hep 3B2 [4]): Active | Activity (Huh-7 [5]): Active | Activity (Huh-7 [6]): Active | Activity (Huh-7 [7]): Active

C[C@]12CC[C@H](O)C[C@H]1CC[C@@H]1[C@@H]2[C@H](O)C[C@]2(C)[C@@H](c3ccc(=O)oc3)CC[C@]12O [GAMABUFOTALIN]
Activity (Hep 3B2 [8]): Active | Activity (Huh-7 [9]): 2.1% | Activity (Hep 3B2 [10]): 10.9% | Activity (Huh-7 [11]): Active | Activity (Huh-7 [12]): Active | Activity (Huh-7 [13]): Active | Activity (Hep 3B2 [14]): 0.5% | Activity (Hep 3B2 [15]): 1.7% | Activity (Huh-7 [16]): Active | Activity (Hep 3B2 [17]): 0.6% | Activity (Hep 3B2 [18]): Active | Activity (Hep 3B2 [19]): 0.3% | Activity (Hep 3B2 [20]): Active | Activity (Hep 3B2 [21]): Active | Activity (Huh-7 [22]): 8.7% | Activity (Huh-7 [23]): Active | Activity (Huh-7 [24]): Active | Activity (Huh-7 [25]): Active | Activity (Hep 3B2 [26]): Active | Activity (Hep 3B2 [27]): Active | Activity (Huh-7 [28]): 1.2% | Activity (Hep 3B2 [29]): 0.6% | Activity (Huh-7 [30]): 24.4% | Activity (Hep 3B2 [31]): Active | inhibition (Huh-7 [32]): Active | Activity (Huh-7 [33]): Active

From ChEMBL document CHEMBL5257089, “Gamabufotalin Induces Apoptosis and Cytoprotective Autophagy through the mTOR Signaling Pathway in Hepatocellular Carcinoma” (J Nat Prod, 2023)
